Test results as given in publication PMC6694155, “PTPσ inhibitors promote hematopoietic stem cell regeneration” (Nature Communications, 2019).
“And” between values parts separate entries of the source, which are not always exact repeats. Equal entries are not always repeated.

Tests used:
[1] = target: T1, DUSP22 (Dual Specificity Phosphatase 22) (Homo sapiens, UniProt Q9NRW4); assay: PhosphataseProfiler screen: DUSP22; format: biochemical; details: replicates
T1 construct: purchased Eurofins Pharma Discovery Services UK
T1 sequence (Q9NRW4 whole entry, species assumed): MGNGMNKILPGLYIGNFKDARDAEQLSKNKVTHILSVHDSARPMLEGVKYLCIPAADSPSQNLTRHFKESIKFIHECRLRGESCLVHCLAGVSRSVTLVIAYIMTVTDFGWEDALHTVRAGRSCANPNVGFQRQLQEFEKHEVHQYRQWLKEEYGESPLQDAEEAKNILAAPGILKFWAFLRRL
Procedure: (§1) Compound DJ001 was evaluated in a PhosphataseProfiler™ screen at 10 μM and 1 μM (2.7 μg/mL and 0.27 μg/mL) concentrations at Eurofins Pharma Discovery Services UK (Study number UK022-0004033) against a panel of 21 Phosphatases. In each experiment, the respective reference antagonist/agonist was tested directly with DJ001 and the data were compared with historical values determined at Eurofins. DJ001 compound inhibition was calculated as percentage inhibition of the enzymatic activity compared with control.

[2] = target: T2, PTPMEG2 (Protein Tyrosine Phosphatase Non-Receptor Type 9) (Homo sapiens, UniProt P43378); assay: PhosphataseProfiler screen: PTPMEG2; format: biochemical; details: replicates
T2 construct: purchased Eurofins Pharma Discovery Services UK
T2 sequence (P43378 whole entry): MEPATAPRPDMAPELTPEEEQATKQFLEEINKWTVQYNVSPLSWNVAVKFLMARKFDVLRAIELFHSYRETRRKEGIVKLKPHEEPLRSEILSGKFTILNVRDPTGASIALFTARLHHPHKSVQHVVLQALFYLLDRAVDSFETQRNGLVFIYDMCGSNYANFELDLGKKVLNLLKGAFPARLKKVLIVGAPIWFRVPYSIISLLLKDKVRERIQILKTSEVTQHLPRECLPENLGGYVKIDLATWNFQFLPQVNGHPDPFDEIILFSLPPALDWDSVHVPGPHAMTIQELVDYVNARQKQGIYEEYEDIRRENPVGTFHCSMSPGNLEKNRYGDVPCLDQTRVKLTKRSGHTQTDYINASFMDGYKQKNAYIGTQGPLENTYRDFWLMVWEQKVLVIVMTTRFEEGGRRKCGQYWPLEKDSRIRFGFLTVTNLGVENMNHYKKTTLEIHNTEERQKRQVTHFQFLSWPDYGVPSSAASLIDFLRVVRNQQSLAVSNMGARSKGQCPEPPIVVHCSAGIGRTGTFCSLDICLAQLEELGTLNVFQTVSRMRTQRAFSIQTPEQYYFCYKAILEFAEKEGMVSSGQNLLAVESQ
Procedure: as §1

[3] = target: T3, SHP-2 (Protein-Tyrosine Phosphatase 2C) (Homo sapiens, UniProt Q06124); assay: PhosphataseProfiler screen: SHP-2; format: biochemical; details: replicates
T3 construct: purchased Eurofins Pharma Discovery Services UK
T3 sequence (Q06124 whole entry, species assumed): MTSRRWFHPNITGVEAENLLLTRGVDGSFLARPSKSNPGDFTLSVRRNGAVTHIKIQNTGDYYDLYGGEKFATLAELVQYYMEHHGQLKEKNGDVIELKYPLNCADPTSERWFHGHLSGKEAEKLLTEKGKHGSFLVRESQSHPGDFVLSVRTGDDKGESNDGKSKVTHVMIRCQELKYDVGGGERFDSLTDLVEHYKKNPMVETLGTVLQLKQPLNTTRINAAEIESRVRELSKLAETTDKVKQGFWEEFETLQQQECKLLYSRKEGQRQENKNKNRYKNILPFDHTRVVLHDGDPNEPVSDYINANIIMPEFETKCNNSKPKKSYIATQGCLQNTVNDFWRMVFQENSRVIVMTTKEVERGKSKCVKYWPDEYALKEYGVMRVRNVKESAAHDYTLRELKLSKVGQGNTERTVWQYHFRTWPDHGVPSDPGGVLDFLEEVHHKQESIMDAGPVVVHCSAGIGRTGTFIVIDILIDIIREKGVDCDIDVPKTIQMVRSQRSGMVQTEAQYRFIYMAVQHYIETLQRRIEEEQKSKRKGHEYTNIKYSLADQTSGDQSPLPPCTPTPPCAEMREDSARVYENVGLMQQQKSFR
Procedure: as §1

[4] = test system: p250GAP in BM lin− cells; assay: p250GAP phospho-tyrosine sandwich ELISA; format: cell-based, mouse
Procedure: Clear, pre-blocked Protein A-coated Microtiter wells (Fisher Scientific, #15132) were incubated with ARHGAP32 polyclonal antibody (Bioss, #bs-9296R, 1:500) in antibody dilution buffer (150 mM NaCl, 25 mM HEPES pH 7.2, 0.5% bovine serum albumin, 0.05% Tween 20) for 3 h at room temperature (RT). Subsequently, the plate was washed three times and phosphorylated p250GAP from BM lin^− cell lysate was added to each well. BM lin^− cells were collected in NP40 buffer (ThermoFisher Scientific; FNN0021) supplemented with 1× complete, Mini, EDTA-free Protease Inhibitor Cocktail (Sigma Aldrich; 4693159001) and 1× PhosSTOP (Sigma Aldrich; 4906845001). Following incubation for 2 h at 4 °C, the plate was completely emptied (without washing) and exposed to 50 μL of a fixation solution (0.5% formaldehyde in 300 mM NaCl, 20 mM sodium phosphate buffer, pH 7) for 10 min. The plate-bound, phosphorylated p250GAP was measured by a specific anti-phospho-tyrosine peroxidase-coupled antibody (Sigma Aldrich, #A5964-1VL, 1:500) in antibody dilution buffer. Incubation was for 1 h at RT. Peroxidase activity was measured by a Tecan Infinity plate reader using BM Chemiluminescence ELISA Substrate (Sigma Aldrich, #11582950001).

[5] = target: T4, PTPσ-p250GAP complex in BM KSL cells (Mus musculus, UniProt B0V2N1); assay: Proximity ligation assay; format: cell-based; details: 1 μg/mL DJ001, 1 h
T4 construct: endogenous in cells; host or cells: primary bone marrow KSL (c-kit+ Sca-1+ lin-) cells of C57BL/6 mice
T4 sequence (B0V2N1 30-1907, one chain of several): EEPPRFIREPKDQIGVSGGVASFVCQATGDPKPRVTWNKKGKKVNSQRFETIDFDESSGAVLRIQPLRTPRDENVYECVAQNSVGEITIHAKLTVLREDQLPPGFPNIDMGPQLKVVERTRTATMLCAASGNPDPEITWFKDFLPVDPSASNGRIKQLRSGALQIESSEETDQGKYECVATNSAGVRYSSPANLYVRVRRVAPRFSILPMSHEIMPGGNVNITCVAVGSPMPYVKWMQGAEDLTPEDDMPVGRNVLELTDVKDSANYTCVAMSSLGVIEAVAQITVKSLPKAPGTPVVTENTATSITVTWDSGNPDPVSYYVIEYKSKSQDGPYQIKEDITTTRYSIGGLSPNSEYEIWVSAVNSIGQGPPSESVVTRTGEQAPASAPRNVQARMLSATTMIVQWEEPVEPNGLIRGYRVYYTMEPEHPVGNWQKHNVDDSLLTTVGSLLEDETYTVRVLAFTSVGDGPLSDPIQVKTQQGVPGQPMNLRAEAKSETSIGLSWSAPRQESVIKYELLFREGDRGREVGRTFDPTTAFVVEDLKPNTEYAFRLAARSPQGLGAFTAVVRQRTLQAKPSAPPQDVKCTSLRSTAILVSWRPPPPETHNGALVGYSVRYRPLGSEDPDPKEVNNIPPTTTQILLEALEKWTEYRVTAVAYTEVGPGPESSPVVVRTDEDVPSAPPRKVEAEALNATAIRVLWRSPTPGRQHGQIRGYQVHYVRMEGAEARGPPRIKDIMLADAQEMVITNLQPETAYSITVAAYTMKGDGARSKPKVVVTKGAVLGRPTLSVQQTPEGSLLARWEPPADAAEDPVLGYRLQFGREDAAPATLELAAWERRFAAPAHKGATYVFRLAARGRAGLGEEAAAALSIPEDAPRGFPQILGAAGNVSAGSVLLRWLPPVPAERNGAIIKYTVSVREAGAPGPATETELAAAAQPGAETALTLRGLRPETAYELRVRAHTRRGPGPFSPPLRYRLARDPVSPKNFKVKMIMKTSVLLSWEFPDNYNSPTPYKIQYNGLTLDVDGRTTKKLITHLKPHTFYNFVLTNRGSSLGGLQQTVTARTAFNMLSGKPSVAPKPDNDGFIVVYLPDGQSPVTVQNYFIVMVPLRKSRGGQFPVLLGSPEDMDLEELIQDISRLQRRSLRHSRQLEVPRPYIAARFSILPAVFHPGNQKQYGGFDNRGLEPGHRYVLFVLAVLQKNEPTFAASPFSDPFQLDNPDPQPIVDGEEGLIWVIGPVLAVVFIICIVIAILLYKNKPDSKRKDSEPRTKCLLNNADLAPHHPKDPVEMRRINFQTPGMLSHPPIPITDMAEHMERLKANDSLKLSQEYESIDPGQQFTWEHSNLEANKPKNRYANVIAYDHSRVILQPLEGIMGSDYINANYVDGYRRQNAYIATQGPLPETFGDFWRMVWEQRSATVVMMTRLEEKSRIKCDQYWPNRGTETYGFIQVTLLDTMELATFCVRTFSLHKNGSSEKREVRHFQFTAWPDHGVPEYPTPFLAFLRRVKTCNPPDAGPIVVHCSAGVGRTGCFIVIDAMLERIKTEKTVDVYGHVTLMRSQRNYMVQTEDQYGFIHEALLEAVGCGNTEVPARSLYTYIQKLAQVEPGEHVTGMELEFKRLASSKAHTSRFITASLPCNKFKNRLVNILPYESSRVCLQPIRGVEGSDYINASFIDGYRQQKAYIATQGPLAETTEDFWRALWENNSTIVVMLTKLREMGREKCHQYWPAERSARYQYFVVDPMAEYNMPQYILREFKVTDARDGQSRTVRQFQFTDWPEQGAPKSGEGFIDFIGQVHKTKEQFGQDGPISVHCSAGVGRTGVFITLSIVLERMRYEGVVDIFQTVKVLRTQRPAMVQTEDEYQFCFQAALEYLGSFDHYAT
Procedure: A PLA assay was performed by using the Duolink In Situ Red Starter Kit (Millipore Sigma) to detect the binding between PTPσ and p250GAP proteins. BM KSL cells from C57BL/6 mice were sorted by fluorescence-activated cell sorting and then plated onto fibronectin pre-coated chamber slides overnight. The next day, cells were treated with 1 μg/mL DJ001 or vehicle (equal volume of DMSO) for 1 h at 37 °C. Cells were then fixed with 4% paraformaldehyde (PFA) for 20 min. The slides were blocked with Duolink blocking solution and incubated with rabbit anti-ARHGAP32 polyclonal antibody (Bioss Antibodies, #bs-9296R, 1:50 dilution) and goat anti-PTPσ (K-19) polyclonal antibody (Santa Cruz Biotechnology, #sc-10873, 1:50) overnight at 4 °C. Cells were imaged using a Leica SP8 Confocal Microscope equipped with a ×63 objective lens. A white light laser set to 580 nm was used to excite dsRed and a UV laser was used to excite 4′,6-diamidino-2-phenylindole (DAPI). Analysis was performed using the spots detection function in IMARIS 9.0.2 (Bitplane).

[6] = test system: RAC1-GTP in BM KSL cells; assay: RAC1-GTP intracellular flow cytometry of BM KSL cells; format: cell-based, mouse; parameters: Figure 3c: RAC1-GTP in BM KSL cells: unit not given here; details: for Figure 3c: RAC1-GTP in BM KSL cells: individual replicates
Procedure: Intracellular flow cytometric analysis was performed on irradiated (300 cGy) or non-irradiated, sorted KSL cells after treatment with 1 μg/mL DJ001 or control (equal volumes of DMSO) for 24 h. At 24 h after irradiation, cells were fixed with 4% PFA for 10 min, followed by permeabilization using 0.25% saponin in PBS. Cells were washed again and stained with antibody at the recommended concentrations for 30 min at RT. Intracellular antibodies and phospho-flow antibodies used were as follows: FITC-conjugated anti-BCL-XL (Abcam, #26148, 1:100), active RAC1-GTP antibody (NewEast Biosciences, #26903, 1:100) and anti-PAK1 (phospho S144) + PAK2 (phospho S141) + PAK3 (phospho S154) antibody (Abcam, #40795, 1:100), and FITC-conjugated goat anti-rabbit IgG H&L (Abcam, #97050, 1:200).

[7] = test system: DsRed+ BM sca-1+lin− cells in irradiated C57BL/6 mice; assay: Homing study; format: in vivo, mouse
Procedure: Sorted BM sca-1^+lin^− cells (100,000) from DsRed^+ mice were transplanted into lethally irradiated (950 cGy) recipient C57BL/6 mice followed by subcutaneous treatment of 5 mg/kg DJ001 or vehicle × 1 dose. At 18 h post transplantation, BM cells were collected from the recipient mice and were analyzed for percentages of DsRed^+ cells in the BM[17].

With `O=C(/C=C\Nc1cccc([N+](=O)[O-])c1)c1ccccc1` [DJ001, (Z)-3-((3-nitrophenyl)amino)-1-phenylprop-2-en-1-one] the “Supplementary Figure 1: DUSP22 activity” value ([1]; 0.27 μg/mL DJ001) was 107 and 96 (2×), the “Supplementary Figure 1: DUSP22 activity” value ([1]; 2.7 μg/mL DJ001) was 98 and 109 and 100 and the “Supplementary Figure 1: PTP MEG2 activity” value ([2]; 0.27 μg/mL DJ001) was 94 (2×) and 103. The “Supplementary Figure 1: PTP MEG2 activity” value ([2]; 2.7 μg/mL DJ001) was 91 and 71 and 95, the “Supplementary Figure 1: SHP-2 activity” value ([3]; 0.27 μg/mL DJ001) was 99 and 96 and 102 and the “Supplementary Figure 1: SHP-2 activity” value ([3]; 2.7 μg/mL DJ001) was 87 and 90 and 94. The “phosphorylation of p250GAP” value ([4]; 1 µg/mL DJ001) was “significantly increased phosphorylation of p250GAP”, the “Figure 3a: p250GAP phosphorylation (phospho-tyrosine ELISA)” value ([4]; DJ001 vs media, individual replicates) was 62.785 and 39.77 and 58.721 and 55.943 and 45.893 and 49.264 and 56.331 and the “co-localization of PTPσ and p250GAP” value [5] was “significantly decreased co-localization”. For the same compound, the RAC1-GTP levels ([6]; BM KSL cells from Ptprs+/+ mice) was “rapid increase in RAC1-GTP levels”, the RAC1-GTP levels ([6]; BM KSL cells from Ptprs−/− mice) was “no change in RAC1-GTP levels” and the “Figure 3c: RAC1-GTP in BM KSL cells” value ([6]; Ptprs+/+ cells) was 42 and 37.6 and 37.8 and 37.4 and 37.3. For the same compound, the “Figure 3c: RAC1-GTP in BM KSL cells” value ([6]; Ptprs-/- cells) was 84.6 and 83.8 and 81.9 and 85.5 and 85.6, the “homing of transplanted BM sca-1+lin− cells” value ([7]; 18 h, irradiated C57BL/6 mice) was “no effect on homing” and the “percentage of donor DsRed+ cells in the BM, per mouse (Supplementary Figure 8b)” value ([7]; 18 hours, 5 mg/kg DJ001 subcutaneously, 5 mg/kg) was 0.19% and 0.183% and 0.207%.
